Patent publication US20070092551A1, “Therapeutic agent” (TAKARA BIO INC., priority 2003, published 2007)

How the values were obtained:
Type in all cases: cell-based
[1] = test system: 3T3-L1 cells; test: Induction of adipocyte differentiation (amount of triglyceride biosynthesis); conditions: Mus musculus, 3T3-L1, X=(S−N)/(P−N) of amount of triglyceride, P=insulin positive control, read-out: Action for Induction of Differentiation
How it was run: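 Differentiation scored as X=(S−N)/(P−N), ranked +++, ++, +, +/−, where S, N and P are triglyceride with compound, DMSO and insulin; triglyceride was extracted with hexane:isopropanol (3:2) and assayed twice. Compound was added after 7 days' growth, first with 0.25 μM dexamethasone (45 h), then for 7 days.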

[2] = target: T1, fusion protein of an yeast GAL4 DNA-binding domain and a human PPARγ ligand-binding site (Homo sapiens, UniProt P37231); test: PPARγ activation reporter assay in CV-1 cells; conditions: test compound 10 μM, pFA-CMV (PPARγ), 24 hours
T1 construct: expressed in transfected cells; host or cells: CV-1 cells
T1 sequence (P37231 204-505): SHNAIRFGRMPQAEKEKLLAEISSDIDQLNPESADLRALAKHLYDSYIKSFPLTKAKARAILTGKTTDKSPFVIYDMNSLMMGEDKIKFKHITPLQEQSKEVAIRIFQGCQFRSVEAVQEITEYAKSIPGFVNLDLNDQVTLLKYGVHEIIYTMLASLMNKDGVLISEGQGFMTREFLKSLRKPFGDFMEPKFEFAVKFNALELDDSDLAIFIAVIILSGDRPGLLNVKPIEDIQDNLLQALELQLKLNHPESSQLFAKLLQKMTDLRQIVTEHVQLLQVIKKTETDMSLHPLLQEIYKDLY
Experimental: The activation ability for PPARγ was determined by a reporter assay using a fusion protein of an yeast GAL4 DNA-binding domain and a human PPARγ ligand-binding site.
A plasmid (pGAL4/GL3-Promoter) was prepared by repeating five times insertion of a binding site (UASg) of GAL4 into a multicloning site of a pGL3-Promoter vector (Promega). In addition, a ligand-binding site (amino acid sequence 204 to 505) of the PPARγ gene was cloned from a human liver cDNA library (manufactured by TAKARA BIO INC.) by a polymerase chain reaction, and the ligand-binding site was inserted into a multicloning site of a pFA-CMV plasmid vector ([…]) to give pFA-CMV (PPARγ).
Escherichia coli JM-109 strain was transformed with each of the two kinds of the plasmids obtained by the above-mentioned procedures, and pFA-CMV and pRL-TK (Promega) according to a conventional method. Each of the Escherichia coli cells was cultured with shaking at 37° C. for 18 hours in an LB medium containing 100 μg/mL ampicillin. Thereafter, the plasmids of each were purified according to the procedure manual of QIAfilter Plasmid midi Kit (QIAGEN).
CV-1 cells were seeded in a 24-well plate so as to have a density of 4×10^4 cells per well. Thereafter, the cells were cultured in a Dulbecco's modified Eagle's medium (manufactured by Sigma, D5796) containing 10% fetal bovine serine (manufactured by Bio Whittaker) for 24 hours under the conditions of 37° C. and 5% CO2. Thereafter, in accordance with the procedure manual of LipofectAmine 2000 (Invitrogen), the gene transfer was carried out into the CV-1 cells with 200 ng of pFA-CMV (PPARγ) or pFA-CMV, 400 ng of pGAL4/GL3-promoter, and 200 ng of pRL-TK per well, and thereafter the cells were cultured for 24 hours under the conditions of 37° C. and 5% CO2. Thereafter, the medium was exchanged with a Dulbecco's modified Eagle's medium to which a test compound dissolved in dimethyl sulfoxide was previously added so as to have a final concentration of 10 μM. Thereafter, the cells were cultured for additional 24 hours. In addition, there were set a group with addition of dimethyl sulfoxide in place of a test compound as a negative control, and a group with addition of troglytazone (manufactured by Calbiochem) so as to have a final concentration of 3 μM as a positive control. The cells were washed with a phosphate buffered saline, and 5× PassiveLysisBuffer (Promega) which was previously diluted in 5-folds with distilled water was added thereto in an amount of 100 μL per well. The mixture was shaken at room temperature for 15 minutes to lyse cells. Twenty microliters of this lysed solution was applied in accordance with the procedure manual of Dual Luciferase Assay System (Promega), and a fluorescent luciferase emission intensity and a Renilla mullerei luciferase emission intensity were measured using Mithras-LB940 (BERTHOLD TECHNOLOGIES GmbH). The enhancing action for transcriptional activation of each test compound was shown as a relative value obtained by calculating a ratio of the fluorescent luciferase emission intensity to the Renilla mullerei luciferase emission intensity, wherein the value of the group with addition of the negative control is defined as 1.

[3] = test system: mature adipocytes (3T3-L1 cells); test: Glucose uptake enhancement inhibited by cytochalasin B; conditions: cytochalasin B 40 μM added to the 4-hydroxyderricin 7.8 μM, insulin 1 μg/mL and negative control groups
Experimental: The influence of cytochalasin B on 2-deoxyglucose uptake into matured adipocytes during the stimulation with the sample in the adipocytes was tested in accordance with the method shown in Example 83 on whether or not the enhancing action of 4-hydroxyderricin on glucose uptake shown in Example 83 is inhibited by cytochalasin B, which is an inhibitor of a glucose transporter.
Specifically, as a sample, a group with addition of a dimethyl sulfoxide solution of 4-hydroxyderricin so as to have a final concentration of 7.8 μM was set. Here, there were set a group without addition of the sample as a negative control and a group with addition of insulin so as to have a final concentration of 1 μg/mL as a positive control. Furthermore, there was set a group with addition of cytochalasin B (manufactured by nacalai tesque, 10435-81) to each group so as to have a final concentration of 40 μM in the same time as the time of addition of insulin. Thereafter, 2-deoxy-[1,2-^3H(N)]-glucose subjected to uptake into the adipocytes was determined in the same manner.

[4] = test system: insulin-resistant mature adipocytes; test: Enhancing action on glucose uptake into insulin-resistant (TNF-α treated) mature adipocytes; conditions: group treated with insulin; mature adipocytes treated with mouse-derived TNF-α 10 or 20 ng/mL
Experimental: It is said that tumor necrosis factor a (TNF-α) is deeply involved in insulin resistance, and it has been known that a signal from an insulin receptor is inhibited by treating mature adipocytes with TNF-α, so that a reaction of glucose uptake is inhibited by insulin stimulation (Proc. Natl. Acad. Sci. USA, vol. 91, p 4854-4858 (1994)). The enhancing action by 4-hydroxyderricin on glucose uptake into mature adipocytes in which insulin resistance was induced by TNF-α was evaluated.
The induction of differentiation into mature adipocytes was carried out in the same manner as in the method described in Example 83, except that after preparation of the mature adipocytes, in order to induce insulin resistance in these mature adipocytes, mouse-derived TNF-α (manufactured by Cosmobio, 3410) was added to the medium so as to have a final concentration of 10 ng/mL or 20 ng/mL, and the adipocytes were cultured for additional 2 days. […]
The enhancing action on glucose uptake was evaluated in the same manner as in the method described in Example 83. For each of the cells prepared in item (1) of Example 95 mentioned above, there were set a group containing 4-hydroxyderricin at a final concentration of 30 μM, a group without addition of the sample as a negative control, and a group with treatment with insulin, and the radioactivity of each group was determined. […]

[5] = test system: mature adipocytes which were induced to be differentiated by xanthoangelol; test: Glucose uptake into adipocytes induced to be differentiated by xanthoangelol; conditions: stimulation with insulin 1 μg/mL; adipocytes differentiated with xanthoangelol 10 μM
Experimental: Adipocytes which were induced to be differentiated by xanthoangelol were obtained, and thereafter it was confirmed on whether the glucose uptake into the adipocytes is enhanced by stimulation with insulin or 4-hydroxyderricin.
Specifically, as a sample, there was set a group with addition of a dimethyl sulfoxide solution of xanthoangelol having a final concentration of 10 μM. Thereafter, the medium and the sample were exchanged in the same manner as in the method described in Example 82 except that 3-isobutyl-1-methylxanthine having a final concentration of 0.5 mM was added concurrently with the addition of dexamethasone, to give mature adipocytes which were induced to be differentiated by xanthoangelol.
Next, the amount of 2-deoxyglucose uptake into the mature adipocytes during the stimulation with insulin or 4-hydroxyderricin in the resulting mature adipocytes was determined in the same manner as in the method described in Example 83.
Specifically, there were set the group without the addition and the group with addition of insulin having a final concentration of 1 μg/mL or 4-hydroxyderricin having a final concentration of 20 μM. Thereafter, the amount of 2-deoxy-[1,2-^3H(N)]-glucose uptake into the adipocytes was determined in the same manner.

[6] = test system: mature adipocytes (3T3-L1 cells); test: Enhancing action on glucose uptake (2-deoxyglucose) into mature adipocytes; conditions: Mus musculus, 3T3-L1, X=(S−N)/(P−N) of 2-deoxyglucose uptake, P=insulin 1 μg/mL, read-out: Enhancing Action on Glucose Uptake

Compound | activation at 3 µM [1] | activation at 10 µM [1] | activation at 10 µM [6] | activation at 30 µM [6] | also measured
COc1cc(O)c(CC=C(C)C)c(O)c1C(=O)/C=C/c1ccc(O)cc1 [Xanthohumol, 4,2′,4′-trihydroxy-3′-prenyl-6′-methoxychalcone] |  |  |  |  | activation at 4 µM [1]: 15 to 30%; activation at 13 µM [1]: 30 to 60%; enhancing action for transcriptional activation (PPARγ) [2]: no enhancing action for transcriptional activation was found
C=C1[C@@H](C)[C@H]2[C@H](Cc3ccccc3)NC(=O)[C@]23OC(=O)/C=C/[C@H](O)CCC[C@@H](C)C/C=C/[C@H]3[C@@H]1O [cytochalasin B, reference compound] |  |  |  |  | 2-deoxy-[1,2-3H(N)]-glucose uptake on addition of cytochalasin B [3]: almost completely inhibited
insulin: insulin (manufactured by TAKARA BIO INC.), positive control |  |  |  |  | enhancing action on glucose uptake, increase without TNF-α defined as 100% [4]: around 40%; 2-deoxy-[1,2-3H(N)]-glucose uptake [5]: enhancement of 2-deoxy-[1,2-^3H(N)]-glucose uptake
COc1ccc(C(=O)/C=C/c2ccc(OC(C)=O)cc2)c(OC(C)=O)c1C/C=C(\C)CCC=C(C)C [Compound (C064-1), 4,2′-diacetoxy-3′-geranyl-4′-methoxychalcone] | > 100% | > 100% | 60 to 100% | > 100% | 
CCOc1ccc(C(C)=O)c(O)c1C/C=C(\C)CCC=C(C)C [Compound (C048), 2′-hydroxy-3′-geranyl-4′-ethoxyacetophenone] |  | > 100% | 30 to 60% | > 100% | activation at 30 µM ([1]; 30 μM): > 100%; activation at 3 µM ([6]; 3 μM): 15 to 30%
CC(C)=CCc1c(O)ccc(C(=O)/C=C/c2ccc(Cl)cc2)c1O [Compound (C075), 4-chloro-2′,4′-dihydroxy-3′-prenylchalcone] | 15 to 30% | 30 to 60% | 15 to 30% | 30 to 60% | 
COc1cc(O)c(C(C)=O)cc1CC=C(C)C [Compound (C027), 2′-hydroxy-4′-methoxy-5′-prenylacetophenone] |  |  | 15 to 30% | 30 to 60% | activation at 4 µM [1]: 15 to 30%; activation at 13 µM [1]: 30 to 60%
CC(=O)Oc1ccc(/C=C/C(=O)c2ccc(OC(C)=O)c(C/C=C(\C)CCC=C(C)C)c2OC(C)=O)cc1 [Compound (C061), 4,2′,4′-triacetoxy-3′-geranylchalcone] | 60 to 100% | > 100% |  | 30 to 60% | 
